doi:10.1101/2023.11.02.565309v1 (biorxiv, 2023)

Target: WT GluA2(Q)i (Rattus norvegicus, UniProt P19491)
Assay type: cell-based
Conditions: positive allosteric modulator at 100 µM

Sequence of WT GluA2(Q)i (P19491 22-883 isoform P19491-2): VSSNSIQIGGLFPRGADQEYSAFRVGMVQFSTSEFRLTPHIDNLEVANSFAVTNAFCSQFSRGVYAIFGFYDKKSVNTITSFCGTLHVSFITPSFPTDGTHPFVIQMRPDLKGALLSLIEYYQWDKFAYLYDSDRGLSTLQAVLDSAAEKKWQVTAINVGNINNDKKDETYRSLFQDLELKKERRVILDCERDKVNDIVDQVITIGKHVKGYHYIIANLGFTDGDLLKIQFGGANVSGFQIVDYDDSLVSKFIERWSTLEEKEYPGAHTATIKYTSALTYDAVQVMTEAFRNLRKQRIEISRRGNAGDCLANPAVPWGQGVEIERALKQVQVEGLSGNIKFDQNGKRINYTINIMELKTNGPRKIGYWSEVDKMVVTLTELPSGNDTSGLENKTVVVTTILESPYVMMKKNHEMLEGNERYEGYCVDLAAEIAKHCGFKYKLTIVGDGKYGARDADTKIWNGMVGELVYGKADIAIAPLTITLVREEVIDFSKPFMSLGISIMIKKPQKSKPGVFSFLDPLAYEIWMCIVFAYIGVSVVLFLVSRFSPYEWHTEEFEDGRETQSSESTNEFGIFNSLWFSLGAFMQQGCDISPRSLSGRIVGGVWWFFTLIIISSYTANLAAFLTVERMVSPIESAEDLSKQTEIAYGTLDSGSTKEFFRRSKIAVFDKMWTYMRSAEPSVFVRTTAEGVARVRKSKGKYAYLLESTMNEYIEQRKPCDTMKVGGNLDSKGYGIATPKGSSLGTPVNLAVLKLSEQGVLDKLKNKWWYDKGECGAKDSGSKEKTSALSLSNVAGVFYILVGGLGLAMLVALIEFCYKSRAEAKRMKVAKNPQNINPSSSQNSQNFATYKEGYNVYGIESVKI

fold potentiation: ~ 3 fold
Structure (SMILES): NS(=O)(=O)c1cc2c(cc1Cl)NC(C1CC3C=CC1C3)NS2(=O)=O (stereo not shown) [cyclothiazide]
